One may read the IC50 as the concentration that inhibits the measured activity by half. Usually inhibition stands for the drop in the measured response relative to a control, in per cent. As usually defined, the CC50 is the concentration that lowers cell viability or growth by half.

These results are taken from ChEMBL document CHEMBL4219203, “Design, synthesis and biological evaluation of seco-A-pentacyclic triterpenoids-3,4-lactone as potent non-nucleoside HBV inhibitors” (Bioorg Med Chem Lett, 2018).

Series [1] concerns Hepatitis B virus. Put plainly: Antiviral activity against Hepatitis B virus infected in human HepG2.215 cells assessed as inhibition of HBeAg secretion after 3 days by ELISA. It is filed as functional, organism-based. Conditions: HepG2.2.15, 72 h. In general terms: In an ELISA, binding on a coated surface is turned into a signal by an enzyme label.
The test system of series [2] is Hepatitis B virus. The series can be described thus: Antiviral activity against Hepatitis B virus infected in human HepG2.215 cells assessed as reduction in cellular viral DNA level at 25 uM after 9 days by real time QF-PCR analysis relative to control. It is filed as functional. Conditions: for inhibition at 25 µM: HepG2.2.15, 216 h.
Series [3] has as its system Hepatitis B virus. Put plainly: Antiviral activity against Hepatitis B virus infected in human HepG2.215 cells assessed as inhibition of HBeAg secretion by measuring FITC-labeled monoclonal mouse HBeAg antibody non-labeled cells level at 25 uM after 3 days by flow cytometry (reference value: 0.5%). As to conditions: HepG2.2.15, 72 h. It is filed as functional. In general terms: In flow cytometry, cells or beads pass a laser one at a time.

Series [4] can be described thus: Selectivity index, ratio of CC50 for human HepG2.215 cells to IC50 for Hepatitis B virus infected in human HepG2.215 cells assessed as reduction in covalently closed circular DNA level. It is filed as toxicity, cell-based. Conditions: HepG2.2.15 cells (Hepatitis B virus infected), read-out: Ratio CC50/IC50.
Series [5] has as its system Hepatitis B virus. The series can be described thus: Antiviral activity against Hepatitis B virus infected in human HepG2.215 cells assessed as inhibition of HBeAg secretion by measuring FITC-labeled monoclonal mouse HBeAg antibody non-labeled cells level at 12.5 uM after 3 days by flow cytometry (reference value: 0.5%). It is filed as functional. As to conditions: HepG2.2.15, 72 h.

Series [6] deals with Hepatitis B virus. The series can be described thus: Antiviral activity against Hepatitis B virus infected in human HepG2.215 cells assessed as reduction in covalently closed circular DNA level after 9 days by real time QF-PCR analysis. In kind it is functional, organism-based. Conditions: HepG2.2.15, 216 h.
A short description of series [7]: Cytotoxicity against human HepG2.215 cells assessed as reduction in cell viability after 3 days by MTT assay. It is filed as cell-based, HepG2 2.2.15. Conditions: HepG2.2.15 cells. (In general: Tetrazolium dyes change colour on reduction, which living cells bring about.)
Series [8] deals with Hepatitis B virus. The series can be described thus: Antiviral activity against Hepatitis B virus infected in human HepG2.215 cells assessed as inhibition of HBsAg secretion after 3 days by ELISA. It is filed as functional, organism-based. Conditions: HepG2.2.15, 72 h.
In series [9] the test system is Hepatitis B virus. Put plainly: Antiviral activity against Hepatitis B virus infected in human HepG2.215 cells assessed as inhibition of HBeAg secretion by measuring FITC-labeled monoclonal mouse HBeAg antibody non-labeled cells level at 6.25 uM after 3 days by flow cytometry (reference value: 0.5%). It is filed as functional. Conditions: HepG2.2.15, 72 h.
Series [10] in a line: Selectivity index, ratio of CC50 for human HepG2.215 cells to IC50 for Hepatitis B virus infected in human HepG2.215 cells assessed as inhibition of HBeAg secretion. It is filed as toxicity, cell-based. Conditions: HepG2.2.15 cells (Hepatitis B virus infected), read-out: Ratio CC50/IC50.
Series [11] in a line: Selectivity index, ratio of CC50 for human HepG2.215 cells to IC50 for Hepatitis B virus infected in human HepG2.215 cells assessed as inhibition of HBsAg secretion. It is filed as toxicity, cell-based. As to conditions: HepG2.2.15 cells (Hepatitis B virus infected), read-out: Ratio CC50/IC50.

The source made the active and inactive calls. No cut-off for these calls is given here. Some results are limits rather than exact numbers.

`CC1(C)CC[C@]2(C(=O)O)CC[C@]3(C)C(=CC(=O)[C@@H]4[C@@]5(C)CCC(=O)OC(C)(C)[C@@H]5CC[C@]43C)[C@@H]2C1`: the IC50 with Hepatitis B virus [1] is 0.14 µM; with Hepatitis B virus [6], 33.5 µM; in the series with Hepatitis B virus [8], 321 µM. The inhibition at 25 µM is 82.6% in the series on Hepatitis B virus [2] and 33.5% in the series on Hepatitis B virus [3]. Further, the selectivity ratio is 17.4 in series [4], greater than 200 in series [10] and 1.81 in series [11]. Further, the inhibition at 12.5 µM in the series with Hepatitis B virus [5] is 7.8%. Moreover, the CC50 at 72 h in series [7] was determined as 583 µM. The inhibition at 6.25 µM with Hepatitis B virus [9] worked out at 7.7%.

Consider `CC1(C)CC[C@]2(C(=O)O)CC[C@]3(C)C(=CC[C@@H]4[C@@]5(C)CC[C@H](O)C(C)(C)[C@@H]5CC[C@]43C)[C@@H]2C1` [OLEANOLIC_ACID], for which the IC50 with Hepatitis B virus [1] is 814 µM; in the series on Hepatitis B virus [8], 1360 µM. For the same compound, in [7], the CC50 at 72 h was 731 µM. Also, the values for the selectivity ratio in [10] and in series [11] were 0.9 and 0.53, respectively.

With `C[C@H]1[C@H](C)CC[C@]2(C(=O)O)CC[C@]3(C)C(=CC[C@@H]4[C@@](C)(CCC(=O)O)[C@H](C(C)(C)O)CC[C@]43C)[C@H]12`, the IC50 came to 384 µM in the series with Hepatitis B virus [1] and 406 µM in the series on Hepatitis B virus [8]. Moreover, in series [7], the CC50 at 72 h came to 461 µM. The selectivity ratio in [10] worked out at 1.2; in series [11], 1.13.

As to `C[C@H]1[C@H](C)CC[C@]2(C(=O)O)CC[C@]3(C)C(=CC[C@@H]4[C@@]5(C)CC[C@H](O)C(C)(C)[C@@H]5CC[C@]43C)[C@H]12` [URSOLIC ACID], the values for the IC50 with Hepatitis B virus [1] and with Hepatitis B virus [8] were 897 µM and 1360 µM, respectively. In series [7], the CC50 at 72 h is 1540 µM. Besides, the figures for the selectivity ratio in series [10] and in series [11] were 1.72 and 1.13, respectively.

`CC1(C)OC(=O)CC[C@]2(C)[C@H]3C(=O)C=C4[C@@H]5C[C@@](C)(C(=O)O)CC[C@]5(C)CC[C@@]4(C)[C@]3(C)CC[C@@H]12`: the figures for the IC50 in the series with Hepatitis B virus [1] and in the series on Hepatitis B virus [8] were 81.9 µM and 171 µM, respectively. The inhibition entry in the series with Hepatitis B virus [2] is “Active”. Moreover, the CC50 at 72 h in series [7] turned out to be 546 µM. The selectivity ratio amounted to 6.67 in series [10] and 3.2 in [11].

With `CC1(C)CC[C@@]23CC[C@]4(C)[C@@](OC2=O)([C@@H]3C1)[C@@H](O)C[C@@H]1[C@@](C)(CCC(=O)O)[C@H](C(C)(C)O)CC[C@]14C`, the IC50 in the series with Hepatitis B virus [1] was 112 µM; in the series with Hepatitis B virus [8], 340 µM. Further, the inhibition result in the series with Hepatitis B virus [2] was “Active”. Moreover, the CC50 at 72 h in series [7] came out at 452 µM. Further, the values for the selectivity ratio in series [10] and in series [11] were 4.04 and 1.32, respectively.

As to `C[C@H]1C(=O)CC[C@@H]2[C@]1(C)CC[C@H]1[C@@]2(C)CC[C@@]2(C)[C@@H]3CC(C)(C)CC[C@]3(C)CC[C@]12C` [FRIEDELINE], the IC50 with Hepatitis B virus [1] is 1250 µM; with Hepatitis B virus [8], 1210 µM. In addition, the CC50 at 72 h in series [7] came out at 1790 µM. Also, the results for the selectivity ratio in series [10] and in series [11] were 1.43 and 1.48, respectively.

In the case of `Nc1ccn([C@H]2CS[C@@H](CO)O2)c(=O)n1`, the values for the IC50 with Hepatitis B virus [1] and in the series with Hepatitis B virus [8] were 1440 µM and 917 µM, respectively. The inhibition at 25 µM with Hepatitis B virus [2] is 92.8%. Besides, the CC50 at 72 h in [7] was 876 µM.

`CC1(C)[C@@H](O)CC[C@]2(C)[C@H]3C(=O)C=C4[C@@H]5C[C@@](C)(C(=O)O)CC[C@]5(C)CC[C@@]4(C)[C@]3(C)CC[C@@H]12` [ENOXOLONE]: the IC50 in the series with Hepatitis B virus [1] stood at 806 µM; in the series on Hepatitis B virus [8] it was 510 µM. Further, the CC50 at 72 h in [7] stood at 650 µM. Besides, the selectivity ratio worked out at 0.81 in series [10] and 1.27 in series [11].

For `CC1(C)CC[C@]2(C(=O)O)CC[C@]3(C)C(Br)(CC[C@@H]4[C@@]5(C)CCC(=O)C(C)(C)[C@@H]5CC[C@]43C)[C@@H]2C1` (some centres not stated), the half-maximal inhibitory concentration (IC50) is 925 µM with Hepatitis B virus [1] and 883 µM with Hepatitis B virus [8]. In addition, the CC50 at 72 h in [7] worked out at 100 µM. The selectivity ratio in [10] turned out to be 0.1; in series [11], 0.11.

Regarding `CC1(C)CC[C@]2(C(=O)O)CC[C@]3(C)C(Br)(CC[C@@H]4[C@@]5(C)CCC(=O)OC(C)(C)[C@@H]5CC[C@]43C)[C@@H]2C1` (some centres not stated), the IC50 with Hepatitis B virus [1] came to 92.3 µM; with Hepatitis B virus [8] it was 305 µM. In addition, the cytotoxic concentration (CC50) at 72 h in series [7] is 485 µM. The selectivity ratio was found to be 5.21 in series [10] and 1.59 in series [11].

`C[C@H]1[C@H](C)CC[C@]2(C(=O)O)CC[C@]3(C)C(=CC[C@@H]4[C@@]5(C)CCC(=O)OC(C)(C)[C@@H]5CC[C@]43C)[C@H]12`: the figures for the IC50 in the series with Hepatitis B virus [1] and with Hepatitis B virus [8] were 176 µM and 284 µM, respectively. Also, in series [7], the CC50 at 72 h came out at 406 µM. In addition, the selectivity ratio in series [10] turned out to be 2.3; in [11], 1.43.

Turning to `C[C@H]1OC(=O)CC[C@@H]2[C@]1(C)CC[C@H]1[C@@]2(C)CC[C@@]2(C)[C@@H]3CC(C)(C)CC[C@]3(C)CC[C@]12C` [FRIEDELIN-3,4-LACTONE], the IC50 amounted to 790 µM in the series on Hepatitis B virus [1] and 765 µM in the series with Hepatitis B virus [8]. In addition, the CC50 at 72 h in series [7] was 482 µM. Also, the selectivity ratio in series [10] is 0.61; in series [11], 0.63.

With `CC1(C)CC[C@@]23CC[C@]4(C)[C@@](OC2=O)([C@@H]3C1)[C@@H](O)C[C@@H]1[C@@]2(C)CCC(=O)OC(C)(C)[C@@H]2CC[C@]14C`, the IC50 with Hepatitis B virus [1] stood at 149 µM; in the series on Hepatitis B virus [8] it was 286 µM. The inhibition result in the series with Hepatitis B virus [2] is “Active”. The CC50 at 72 h in series [7] is 540 µM. Moreover, the selectivity ratio in [10] is 3.03; in series [11], 1.57.

For `CC(C)(O)[C@@H]1CC[C@]2(C)[C@H](C(=O)C=C3[C@@H]4C[C@@](C)(C(=O)O)CC[C@]4(C)CC[C@]32C)[C@@]1(C)CCC(=O)O`, the values for the IC50 in the series on Hepatitis B virus [1], in the series on Hepatitis B virus [6] and in the series on Hepatitis B virus [8] were 257 µM, 12.3 µM and 259 µM, respectively. In addition, the inhibition at 25 µM with Hepatitis B virus [2] was determined as 91.4%. Moreover, the selectivity ratio was 166 in series [4], 7.95 in series [10] and 7.87 in series [11]. The CC50 at 72 h in [7] was determined as 2040 µM.

As for `CC1(C)CC[C@]2(C(=O)O)CC[C@]3(C)C(=CC[C@@H]4[C@@]5(C)CCC(=O)OC(C)(C)[C@@H]5CC[C@]43C)[C@@H]2C1`, the IC50 is 0.86 µM in the series with Hepatitis B virus [1], 32.7 µM in the series with Hepatitis B virus [6] and 360 µM in the series with Hepatitis B virus [8]. For the same compound, the inhibition at 25 µM was 81.6% in the series on Hepatitis B virus [2] and 34% in the series on Hepatitis B virus [3]. The selectivity ratio is 14.5 in series [4], greater than 200 in series [10] and 1.32 in series [11]. In the series on Hepatitis B virus [5], the inhibition at 12.5 µM stood at 10.6%. Besides, the CC50 at 72 h in [7] was 477 µM. For the same compound, the inhibition at 6.25 µM with Hepatitis B virus [9] was 6.2%.
